# Measurements reported in patent US20090227674A1, “Combination methods fo saha and targretin for treating cancer” (priority 2005, published 2009).
# System: HH cells (CTCL cells; ATCC)
# Test: ViaLight Plus viability/proliferation assay, Vorinostat and Targretin combination
# Type: cell-based
# Method: Data from these assays was used to determine the range of combination concentrations. Both compounds were combined at concentrations close to their IC50 values. Subsequent combination viability/proliferation assays were performed using the ViaLight Plus protocol.
# Costar white with clear bottom 96 well plates (#3603) were seeded with 25,000 cells per well in a volume of 100 μL/well of growth media for each time point. HH cell line growth media included RPMI (GIBCO #) with 10% FBS (GIBCO # SV30014.03), 1% Glutamax (GIBCO # 35050-061), and 1% Penicillin/Streptomycin (GIBCO # 30-002). […] For the fixed ratio method, compounds were combined and diluted together serially. […] For each treatment concentration, 25 μL of the appropriate dilution for each compound was added to the corresponding wells. Wells on the outer perimeter of the plate were not used. At each time-point, plates were read using the ViaLight Plus protocol. Luminescence was read using the Victor V plate reader.
SMILES,"decrease in viability (HH cell line, 0.60 μM Targretin alone (FIG. 1A))","cytotoxicity at 0.37 µM (Homo sapiens, HH, read-out: decrease in cell viability)"
"C=C(c1ccc(C(=O)O)cc1)c1cc2c(cc1C)C(C)(C)CCC2(C)C [Targretin®, 4-[1-(5,6,7,8-Tetrahydro-3,5,5,8,8-pentamethyl-2-naphthalenyl)ethenyl]benzoic acid]",~40%,
"O=C(CCCCCCC(=O)Nc1ccccc1)NO [Vorinostat, N-Hydroxy-N′-phenyl octanediamide]",,~40%
